Data: the NIST ThermoML archive (doi:10.1021/je9006579)
Numbers after ± are expanded uncertainties.

Legend:
[1] = molar heat capacity at constant pressure; xn = mol fraction of the nth substance listed; settings: 101 kPa, Liquid
[2] = molar heat capacity at constant pressure; settings: 101.33 kPa, Liquid, Cooling curve

C1N2CN3CN1CN(C2)C3 [1,3,5,7-tetraazaadamantane] + CC(=O)O
molar heat capacity at constant pressure [J/K/mol], [1], Vacuum adiabatic calorimetry
Settings | x1 = 0.022 | x1 = 0.0454 | x1 = 0.0703 | x1 = 0.0967 | x1 = 0.1249 | x1 = 0.1551 | x1 = 0.1873 | x1 = 0.2221
308.15 K | 137.35 ± 20 | 144.8 ± 20 | 151.94 ± 20 | 159.76 ± 20 | 170.64 ± 20 | 180.97 ± 20 | 191.09 ± 20 | 203.69 ± 20
313.15 K | 142.53 ± 20 | 150.32 ± 20 | 157.16 ± 20 | 165.58 ± 20 | 176.29 ± 20 | 187.61 ± 20 | 198.06 ± 20 | 210.89 ± 20
318.15 K | 147.51 ± 20 | 155.25 ± 20 | 162.14 ± 20 | 170.38 ± 20 | 181.92 ± 20 | 193.63 ± 20 | 203.66 ± 20 | 216.63 ± 20
323.15 K | 152.45 ± 20 | 160.18 ± 20 | 166.78 ± 20 | 175.7 ± 20 | 186.63 ± 20 | 198.28 ± 20 | 209.59 ± 20 | 222.76 ± 20
328.15 K | 157.24 ± 20 | 165.08 ± 20 | 172 ± 20 | 180.88 ± 20 | 191.96 ± 20 | 204.18 ± 20 | 214.96 ± 20 | –
333.15 K | 161.64 ± 20 | 169.05 ± 20 | 176.96 ± 20 | 185.28 ± 20 | 197.37 ± 20 | 209.36 ± 20 | 220.93 ± 20 | 235.17 ± 20

CC(=O)O [acetic acid]
[2]
Settings | molar heat capacity at constant pressure [J/K/mol]
313.15 K | 135.5 ± 21
333.15 K | 137.21 ± 21

CC(=O)O [acetic acid] + CC(=O)OC(C)=O
[1], Cooling curve, x2 = 0
Settings | molar heat capacity at constant pressure [J/K/mol]
308.15 K | 134.93 ± 21
313.15 K | 135.5 ± 21
318.15 K | 136 ± 21
323.15 K | 136.35 ± 21
328.15 K | 136.87 ± 21
333.15 K | 137.21 ± 21

CC(=O)OC(C)=O [ethanoic anhydride]
[2]
Settings | molar heat capacity at constant pressure [J/K/mol]
313.15 K | 200.73 ± 21
333.15 K | 204.34 ± 21

CC(=O)OC(C)=O [ethanoic anhydride] + CC(=O)O
molar heat capacity at constant pressure [J/K/mol], [1], Cooling curve
Settings | x1 = 0.0613 | x1 = 0.1282 | x1 = 0.2013 | x1 = 0.2817 | x1 = 0.3704 | x1 = 0.4687 | x1 = 0.5785 | x1 = 0.7017 | x1 = 0.8411 | x1 = 1
308.15 K | 139.18 ± 21 | 144.25 ± 21 | 149.4 ± 21 | 154.9 ± 21 | 160.85 ± 21 | 167.3 ± 21 | 174.47 ± 21 | 182.33 ± 21 | 190.56 ± 21 | 199.93 ± 21
313.15 K | 139.82 ± 21 | 144.91 ± 21 | 150.09 ± 21 | 155.59 ± 21 | 161.58 ± 21 | 168.08 ± 21 | 175.28 ± 21 | 183.12 ± 21 | 191.49 ± 21 | 200.73 ± 21
318.15 K | 140.51 ± 21 | 145.46 ± 21 | 150.76 ± 21 | 156.27 ± 21 | 162.26 ± 21 | 168.76 ± 21 | 176.03 ± 21 | 183.96 ± 21 | 192.33 ± 21 | 201.58 ± 21
323.15 K | 141.12 ± 21 | 145.9 ± 21 | 151.31 ± 21 | 156.85 ± 21 | 162.89 ± 21 | 169.45 ± 21 | 176.76 ± 21 | 184.78 ± 21 | 193.23 ± 21 | 202.53 ± 21
328.15 K | 141.75 ± 21 | 146.52 ± 21 | 152.03 ± 21 | 157.59 ± 21 | 163.68 ± 21 | 170.33 ± 21 | 177.68 ± 21 | 185.79 ± 21 | 194.35 ± 21 | 203.67 ± 21
333.15 K | 142.23 ± 21 | 147.13 ± 21 | 152.51 ± 21 | 158.1 ± 21 | 164.24 ± 21 | 170.89 ± 21 | 178.31 ± 21 | 186.44 ± 21 | 195 ± 21 | 204.34 ± 21

CCCCCCC [heptane]
[2]
Settings | molar heat capacity at constant pressure [J/K/mol]
313.15 K | 230.37 ± 22
333.15 K | 240.03 ± 22
